Assay results taken from article PMC7933434, “Entropy-driven binding of gut bacterial β-glucuronidase inhibitors ameliorates irinotecan-induced toxicity” (Communications Biology, 2021).
Values joined by “and” are separate entries in the source; they are usually repeats but may differ in a detail not shown here. Identical values can stand only once.

Key:
HsGUS (human GUS) = target: T1, HsGUS (human GUS) (Homo sapiens, UniProt P08236); experiment: GUS inhibition assay, hydrolysis of 4-methylumbelliferyl-β-glucuronide, HsGUS; format: biochemical; design: GUS activity (hydrolysis rate of MUG): unit not given here
T1 construct: HsGUS was prepared as described[37]; made in house
T1 sequence (P08236 23-651): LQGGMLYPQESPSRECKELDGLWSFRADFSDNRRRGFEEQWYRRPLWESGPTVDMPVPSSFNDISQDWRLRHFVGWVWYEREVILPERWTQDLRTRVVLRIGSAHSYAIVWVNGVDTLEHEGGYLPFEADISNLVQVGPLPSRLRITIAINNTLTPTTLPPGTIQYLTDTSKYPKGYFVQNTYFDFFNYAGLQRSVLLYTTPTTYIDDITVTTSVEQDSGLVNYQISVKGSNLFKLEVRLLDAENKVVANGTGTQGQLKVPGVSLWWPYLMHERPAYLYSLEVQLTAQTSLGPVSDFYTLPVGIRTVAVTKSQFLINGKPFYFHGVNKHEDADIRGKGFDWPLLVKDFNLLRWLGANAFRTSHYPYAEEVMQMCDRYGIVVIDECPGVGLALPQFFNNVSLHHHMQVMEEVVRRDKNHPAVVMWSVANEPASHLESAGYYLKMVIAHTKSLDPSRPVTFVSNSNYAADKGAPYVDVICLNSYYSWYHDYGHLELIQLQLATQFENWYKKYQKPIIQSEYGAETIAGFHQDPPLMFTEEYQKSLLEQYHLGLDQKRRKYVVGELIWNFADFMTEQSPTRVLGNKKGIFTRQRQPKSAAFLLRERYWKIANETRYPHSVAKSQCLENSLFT

[1] = target: BdGUS (Bifidobacterium dentium GUS) (Bifidobacterium dentium, UniProt D2Q7B1); experiment: biochemical; design: GUS activity (hydrolysis rate of MUG) / 1/v: unit not given here
[2] = [Inhibitor 3] = 0.25 μM, [MUG] 0.375 mM
[3] = [Inhibitor 3] = 0.25 μM, [MUG] 0.75 mM
[4] = [Inhibitor 3] = 0.25 μM, [MUG] 1.5 mM
[5] = [Inhibitor 3] = 0.25 μM, [MUG] 3 mM
[6] = [Inhibitor 3] = 0.5 μM, [MUG] 0.375 mM
[7] = [Inhibitor 3] = 0.5 μM, [MUG] 0.75 mM

Chain of BdGUS (Bifidobacterium dentium GUS) (D2Q7B1 1-668): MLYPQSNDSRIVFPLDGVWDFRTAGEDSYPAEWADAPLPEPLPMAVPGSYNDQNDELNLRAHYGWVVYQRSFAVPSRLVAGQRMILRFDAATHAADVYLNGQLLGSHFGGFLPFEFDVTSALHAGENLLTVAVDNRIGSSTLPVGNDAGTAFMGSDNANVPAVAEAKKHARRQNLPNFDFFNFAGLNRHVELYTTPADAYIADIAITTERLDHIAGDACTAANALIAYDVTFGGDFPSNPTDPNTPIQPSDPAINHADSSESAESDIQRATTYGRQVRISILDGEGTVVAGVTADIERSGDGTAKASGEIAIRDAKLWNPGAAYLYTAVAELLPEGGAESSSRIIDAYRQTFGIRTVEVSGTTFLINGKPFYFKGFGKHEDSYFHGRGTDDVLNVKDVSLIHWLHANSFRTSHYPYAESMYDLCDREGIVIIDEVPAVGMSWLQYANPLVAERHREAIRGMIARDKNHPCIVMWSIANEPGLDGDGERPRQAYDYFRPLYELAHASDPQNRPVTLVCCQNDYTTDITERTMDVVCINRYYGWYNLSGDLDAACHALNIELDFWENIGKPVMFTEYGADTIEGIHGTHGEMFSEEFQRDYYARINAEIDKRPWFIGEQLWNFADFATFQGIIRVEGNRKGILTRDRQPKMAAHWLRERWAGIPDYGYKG

## CCCCCC[C@@H]1NC[C@@H](O)[C@H](O)[C@H]1C(=O)O [Inhibitor 3, C6-hexyl UIFG]
HsGUS (human GUS); HsGUS, 50 mM sodium acetate pH 4.5, 37 °C
  Ki: 5.3 ± 0.9 µM
HsGUS (human GUS); [Inhibitor 3] =0.15625 μM, [MUG] 0.1 mM
  GUS activity (hydrolysis rate of MUG): 771.278 and 806.238
HsGUS (human GUS); [Inhibitor 3] =0.15625 μM, [MUG] 0.2 mM
  GUS activity (hydrolysis rate of MUG): 1372.81 and 1460.04
HsGUS (human GUS); [Inhibitor 3] =0.15625 μM, [MUG] 0.4 mM
  GUS activity (hydrolysis rate of MUG): 2346.7 and 2406.16
HsGUS (human GUS); [Inhibitor 3] =0.15625 μM, [MUG] 0.6 mM
  GUS activity (hydrolysis rate of MUG): 2899.99 and 3077.74
HsGUS (human GUS); [Inhibitor 3] =0.15625 μM, [MUG] 0.8 mM
  GUS activity (hydrolysis rate of MUG): 3398.11 and 3693.06
HsGUS (human GUS); [Inhibitor 3] =0.15625 μM, [MUG] 1.2 mM
  GUS activity (hydrolysis rate of MUG): 4234.64 and 3962.7
HsGUS (human GUS); [Inhibitor 3] =0.15625 μM, [MUG] 1.6 mM
  GUS activity (hydrolysis rate of MUG): 4964.29 and 4569.67
HsGUS (human GUS); [Inhibitor 3] =0.15625 μM, [MUG] 2 mM
  GUS activity (hydrolysis rate of MUG): 5606.01 and 4919.37
HsGUS (human GUS); [Inhibitor 3] =0.3125 μM, [MUG] 0.1 mM
  GUS activity (hydrolysis rate of MUG): 857.043 and 831.938
HsGUS (human GUS); [Inhibitor 3] =0.3125 μM, [MUG] 0.2 mM
  GUS activity (hydrolysis rate of MUG): 1433.02 and 1411.42
HsGUS (human GUS); [Inhibitor 3] =0.3125 μM, [MUG] 0.4 mM
  GUS activity (hydrolysis rate of MUG): 2271.61 and 2263.8
HsGUS (human GUS); [Inhibitor 3] =0.3125 μM, [MUG] 0.6 mM
  GUS activity (hydrolysis rate of MUG): 2953.53 and 2923.55
HsGUS (human GUS); [Inhibitor 3] =0.3125 μM, [MUG] 0.8 mM
  GUS activity (hydrolysis rate of MUG): 3510.33 and 3469.47
HsGUS (human GUS); [Inhibitor 3] =0.3125 μM, [MUG] 1.2 mM
  GUS activity (hydrolysis rate of MUG): 4268.51 and 4308.7
HsGUS (human GUS); [Inhibitor 3] =0.3125 μM, [MUG] 1.6 mM
  GUS activity (hydrolysis rate of MUG): 4927.41 and 4670.47
HsGUS (human GUS); [Inhibitor 3] =0.3125 μM, [MUG] 2 mM
  GUS activity (hydrolysis rate of MUG): 5186.78 and 5296.26
HsGUS (human GUS); [Inhibitor 3] =0.625 μM, [MUG] 0.1 mM
  GUS activity (hydrolysis rate of MUG): 778.258 and 858.783
HsGUS (human GUS); [Inhibitor 3] =0.625 μM, [MUG] 0.2 mM
  GUS activity (hydrolysis rate of MUG): 1379.09 and 1422.22
HsGUS (human GUS); [Inhibitor 3] =0.625 μM, [MUG] 0.4 mM
  GUS activity (hydrolysis rate of MUG): 2137.64 and 2310.12
HsGUS (human GUS); [Inhibitor 3] =0.625 μM, [MUG] 0.6 mM
  GUS activity (hydrolysis rate of MUG): 2842.46 and 2976.65
HsGUS (human GUS); [Inhibitor 3] =0.625 μM, [MUG] 0.8 mM
  GUS activity (hydrolysis rate of MUG): 3348.75 and 3351.68
HsGUS (human GUS); [Inhibitor 3] =0.625 μM, [MUG] 1.2 mM
  GUS activity (hydrolysis rate of MUG): 4293.66 and 3890.63
HsGUS (human GUS); [Inhibitor 3] =0.625 μM, [MUG] 1.6 mM
  GUS activity (hydrolysis rate of MUG): 4573.95 and 4600.88
HsGUS (human GUS); [Inhibitor 3] =0.625 μM, [MUG] 2 mM
  GUS activity (hydrolysis rate of MUG): 5372.6 and 4990.92
HsGUS (human GUS); [Inhibitor 3] =1.25 μM, [MUG] 0.1 mM
  GUS activity (hydrolysis rate of MUG): 717.04 and 716.519
HsGUS (human GUS); [Inhibitor 3] =1.25 μM, [MUG] 0.2 mM
  GUS activity (hydrolysis rate of MUG): 1240.56 and 1222.88
HsGUS (human GUS); [Inhibitor 3] =1.25 μM, [MUG] 0.4 mM
  GUS activity (hydrolysis rate of MUG): 2023.29 and 2076.53
HsGUS (human GUS); [Inhibitor 3] =1.25 μM, [MUG] 0.6 mM
  GUS activity (hydrolysis rate of MUG): 2757.57 and 2739.69
HsGUS (human GUS); [Inhibitor 3] =1.25 μM, [MUG] 0.8 mM
  GUS activity (hydrolysis rate of MUG): 3062.28 and 3123.61
HsGUS (human GUS); [Inhibitor 3] =1.25 μM, [MUG] 1.2 mM
  GUS activity (hydrolysis rate of MUG): 3822.55 and 3852.43
HsGUS (human GUS); [Inhibitor 3] =1.25 μM, [MUG] 1.6 mM
  GUS activity (hydrolysis rate of MUG): 4324.26 and 4371.34
HsGUS (human GUS); [Inhibitor 3] =1.25 μM, [MUG] 2 mM
  GUS activity (hydrolysis rate of MUG): 5149.01 and 5020.2
HsGUS (human GUS); [Inhibitor 3] =2.5 μM, [MUG] 0.1 mM
  GUS activity (hydrolysis rate of MUG): 605.275 and 587.992
HsGUS (human GUS); [Inhibitor 3] =2.5 μM, [MUG] 0.2 mM
  GUS activity (hydrolysis rate of MUG): 1017.03 and 1026.81
HsGUS (human GUS); [Inhibitor 3] =2.5 μM, [MUG] 0.4 mM
  GUS activity (hydrolysis rate of MUG): 1798.51 and 1698.98
HsGUS (human GUS); [Inhibitor 3] =2.5 μM, [MUG] 0.6 mM
  GUS activity (hydrolysis rate of MUG): 2384.66 and 2417.17
HsGUS (human GUS); [Inhibitor 3] =2.5 μM, [MUG] 0.8 mM
  GUS activity (hydrolysis rate of MUG): 2879.78 and 2802.26
HsGUS (human GUS); [Inhibitor 3] =2.5 μM, [MUG] 1.2 mM
  GUS activity (hydrolysis rate of MUG): 3545.79 and 3649.82
HsGUS (human GUS); [Inhibitor 3] =2.5 μM, [MUG] 1.6 mM
  GUS activity (hydrolysis rate of MUG): 4144.07 and 4075.98
HsGUS (human GUS); [Inhibitor 3] =2.5 μM, [MUG] 2 mM
  GUS activity (hydrolysis rate of MUG): 4744.38 and 4849.33
HsGUS (human GUS); [Inhibitor 3] =3.75 μM, [MUG] 0.1 mM
  GUS activity (hydrolysis rate of MUG): 572.514 and 563.082
HsGUS (human GUS); [Inhibitor 3] =3.75 μM, [MUG] 0.2 mM
  GUS activity (hydrolysis rate of MUG): 956.564 and 935.374
HsGUS (human GUS); [Inhibitor 3] =3.75 μM, [MUG] 0.4 mM
  GUS activity (hydrolysis rate of MUG): 1708.56 and 1611.49
HsGUS (human GUS); [Inhibitor 3] =3.75 μM, [MUG] 0.6 mM
  GUS activity (hydrolysis rate of MUG): 2310.6 and 2247.59
HsGUS (human GUS); [Inhibitor 3] =3.75 μM, [MUG] 0.8 mM
  GUS activity (hydrolysis rate of MUG): 2878.65 and 2643.42
HsGUS (human GUS); [Inhibitor 3] =3.75 μM, [MUG] 1.2 mM
  GUS activity (hydrolysis rate of MUG): 3484.96 and 3524
HsGUS (human GUS); [Inhibitor 3] =3.75 μM, [MUG] 1.6 mM
  GUS activity (hydrolysis rate of MUG): 3945.8 and 4134.14
HsGUS (human GUS); [Inhibitor 3] =3.75 μM, [MUG] 2 mM
  GUS activity (hydrolysis rate of MUG): 4453.48 and 4566.78
[1]; BdGUS, 50 mM HEPES pH 7.5, 37 °C
  Ki: 0.86 ± 0.2 µM
[1]; [2]
  1/v: 0.8098 and 0.8436 and 0.8112
  GUS activity (hydrolysis rate of MUG): 0.2757 and 0.2647 and 0.2753
[1]; [3]
  1/v: 0.4851 and 0.501 and 0.4979
  GUS activity (hydrolysis rate of MUG): 0.4603 and 0.4457 and 0.4485
[1]; [4]
  1/v: 0.3326 and 0.3553 and 0.3441
  GUS activity (hydrolysis rate of MUG): 0.6714 and 0.6286 and 0.649
[1]; [5]
  1/v: 0.2934 and 0.2936 and 0.2832
  GUS activity (hydrolysis rate of MUG): 0.761 and 0.7606 and 0.7885
[1]; [6]
  1/v: 1.013 and 1.039 and 0.9379
  GUS activity (hydrolysis rate of MUG): 0.2203 and 0.2148 and 0.2381
[1]; [7]
  1/v: 0.5713 and 0.5847 and 0.5765
  GUS activity (hydrolysis rate of MUG): 0.3909 and 0.3819 and 0.3873
